Data as given in ChEMBL document CHEMBL4330091, “The discovery and optimization of benzimidazoles as selective NaV1.8 blockers for the treatment of pain” (Bioorg Med Chem, 2019).
≈ marks a conversion by molar mass, not a printed value. Values belong to the compound of their own block, whether it stands above or below them.

What was measured:
[1] = target: Sodium channel protein type 10 subunit alpha (Homo sapiens, UniProt Q9Y5Y9); test: Inhibition of human Nav1.8 expressed in HEK cells by patch-clamp electrophysiology method; assay type: cell-based
[2] = Stability in human liver microsomes assessed per mg protein; assay type: ADME, Microsome
[3] = Stability in human hepatocytes assessed per million cells; assay type: ADME, cell-based, Hepatocyte
[4] = Dissociation constant, pKa of the compound; assay type: physicochemical
[5] = target: Sodium channel protein type 5 subunit alpha (Homo sapiens, UniProt Q14524); test: Inhibition of human Nav1.5
[6] = Apparent permeability from apical to basolateral in RRCK cells; assay type: ADME, cell-based, Canis lupus familiaris, MDCKII-LE; settings: dog, MDCK
[7] = target: Voltage-gated inwardly rectifying potassium channel KCNH2 (Homo sapiens, UniProt Q12809); test: Inhibition of human ERG
Nav1.5 (SCN5A) = Nav1.5 (SCN5A) (Homo sapiens, UniProt Q14524); test: Inhibition of human Nav1.5 at 10 uM
[8] = target: Potassium voltage-gated channel subfamily A member 5 (Homo sapiens, UniProt P22460); test: Inhibition of Kv1.5 (unknown origin)
[9] = Volume of distribution in rat at 1 mg/kg, iv or 3 mg/kg, po; assay type: ADME, organism-based; settings: in vivo
[10] = target: Sodium channel protein type 8 subunit alpha (Homo sapiens, UniProt Q9UQD0); test: Inhibition of human Nav1.6
[11] = Plasma clearance in rat at 1 mg/kg, iv or 3 mg/kg, po; assay type: ADME, organism-based
[12] = target: T1, Potassium voltage-gated channel subfamily KQT member 1 (Homo sapiens, UniProt P51787); test: Inhibition of KvLQT1 (unknown origin)
T1 sequence (P51787 whole entry): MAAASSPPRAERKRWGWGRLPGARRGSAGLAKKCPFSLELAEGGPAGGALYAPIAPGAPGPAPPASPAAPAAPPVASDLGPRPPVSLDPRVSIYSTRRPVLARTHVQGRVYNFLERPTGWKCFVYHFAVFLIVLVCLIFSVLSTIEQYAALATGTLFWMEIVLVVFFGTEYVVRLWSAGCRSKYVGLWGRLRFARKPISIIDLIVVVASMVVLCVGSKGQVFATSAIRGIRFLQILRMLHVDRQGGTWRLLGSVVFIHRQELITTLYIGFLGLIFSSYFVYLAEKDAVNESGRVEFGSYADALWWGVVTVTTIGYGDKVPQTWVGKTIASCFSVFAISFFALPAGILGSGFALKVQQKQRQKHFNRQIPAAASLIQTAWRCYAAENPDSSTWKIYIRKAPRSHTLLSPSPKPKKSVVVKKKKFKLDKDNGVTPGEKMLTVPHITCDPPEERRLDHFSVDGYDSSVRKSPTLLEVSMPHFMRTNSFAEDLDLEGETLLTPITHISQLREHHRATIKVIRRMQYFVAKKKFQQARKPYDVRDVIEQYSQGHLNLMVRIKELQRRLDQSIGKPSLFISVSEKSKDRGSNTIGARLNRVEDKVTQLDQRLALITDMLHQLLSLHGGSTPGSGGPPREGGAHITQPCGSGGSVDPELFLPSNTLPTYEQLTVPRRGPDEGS

[13] = target: T2, Gamma-aminobutyric acid receptor subunit alpha-1/gamma-2 (Homo sapiens, UniProt P14867+P18507); test: Inhibition of GABA receptor alpha1gamma2 (unknown origin); assay type: protein-complex assay
T2 sequence (P14867 whole entry): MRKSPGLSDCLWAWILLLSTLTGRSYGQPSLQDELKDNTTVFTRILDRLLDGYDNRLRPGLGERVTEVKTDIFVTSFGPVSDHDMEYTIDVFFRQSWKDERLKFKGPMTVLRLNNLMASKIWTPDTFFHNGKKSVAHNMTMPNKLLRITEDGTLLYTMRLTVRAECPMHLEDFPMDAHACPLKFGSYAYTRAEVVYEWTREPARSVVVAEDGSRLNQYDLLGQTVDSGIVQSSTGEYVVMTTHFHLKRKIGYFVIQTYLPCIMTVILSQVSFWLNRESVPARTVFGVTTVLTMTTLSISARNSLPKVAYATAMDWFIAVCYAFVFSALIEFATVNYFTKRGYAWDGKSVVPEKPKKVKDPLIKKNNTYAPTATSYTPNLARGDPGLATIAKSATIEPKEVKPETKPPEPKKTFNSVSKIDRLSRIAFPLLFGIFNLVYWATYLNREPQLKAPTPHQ
T2 sequence (P18507 whole entry): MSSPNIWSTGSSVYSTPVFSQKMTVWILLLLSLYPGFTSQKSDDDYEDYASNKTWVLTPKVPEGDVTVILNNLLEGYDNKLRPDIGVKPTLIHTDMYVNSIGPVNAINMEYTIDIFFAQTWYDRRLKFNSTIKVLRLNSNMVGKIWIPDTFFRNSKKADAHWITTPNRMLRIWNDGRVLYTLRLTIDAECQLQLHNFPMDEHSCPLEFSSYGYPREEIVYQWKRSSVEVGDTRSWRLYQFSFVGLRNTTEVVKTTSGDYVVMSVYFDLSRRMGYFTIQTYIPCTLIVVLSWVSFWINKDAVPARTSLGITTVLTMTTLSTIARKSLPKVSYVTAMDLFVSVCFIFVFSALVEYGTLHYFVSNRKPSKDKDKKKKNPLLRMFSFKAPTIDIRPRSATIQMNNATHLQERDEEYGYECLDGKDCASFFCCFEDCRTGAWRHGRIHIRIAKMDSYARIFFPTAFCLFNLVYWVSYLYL

[14] = target: Small conductance calcium-activated potassium channel protein 2 (Homo sapiens, UniProt Q9H2S1); test: Inhibition of SK2 (unknown origin)
[15] = target: Voltage-gated L-type calcium channel (Homo sapiens, UniProt Q13936+Q13698+Q01668+O60840); test: Inhibition of L-type calcium channel (unknown origin); assay type: protein assay
[16] = Oral bioavailability in rat at 3 mg/kg; assay type: ADME, organism-based; settings: in vivo
[17] = target: Voltage-gated T-type calcium channel (Homo sapiens, UniProt O95180+O43497+Q9P0X4); test: Inhibition of T-type calcium channel (unknown origin); assay type: protein assay
[18] = Lipophilicity, log D of the compound; assay type: physicochemical; settings: octanol/water
[19] = target: Potassium voltage-gated channel subfamily A member 1 (Homo sapiens, UniProt Q09470); test: Inhibition of Kv1.1 (unknown origin)
[20] = target: Sodium channel protein type 3 subunit alpha (Homo sapiens, UniProt Q9NY46); test: Inhibition of human Nav1.3
[21] = target: Sodium channel protein type 4 subunit alpha (Homo sapiens, UniProt P35499); test: Inhibition of human Nav1.4
[22] = Solubility of the compound at pH 7.4; assay type: physicochemical; settings: buffer
[23] = Half life in rat at 1 mg/kg, iv or 3 mg/kg, po; assay type: ADME, organism-based; settings: in vivo
[24] = target: Sodium channel protein type 1 subunit alpha (Homo sapiens, UniProt P35498); test: Inhibition of human Nav1.1
[25] = target: Potassium voltage-gated channel subfamily A member 2 (Homo sapiens, UniProt P16389); test: Inhibition of Kv1.2 (unknown origin)
[26] = Unbound clearance in rat at 1 mg/kg, iv or 3 mg/kg, po; assay type: ADME, organism-based; settings: in vivo
[27] = AUC (0 to infinity) in rat at 1 mg/kg, iv or 3 mg/kg, po; assay type: ADME, organism-based; settings: in vivo
[28] = target: Sodium channel protein type 9 subunit alpha (Homo sapiens, UniProt Q15858); test: Inhibition of human Nav1.7
[29] = target: Sodium channel protein type 2 subunit alpha (Homo sapiens, UniProt Q99250); test: Inhibition of human Nav1.2

Sequence of Sodium channel protein type 10 subunit alpha (Q9Y5Y9 whole entry): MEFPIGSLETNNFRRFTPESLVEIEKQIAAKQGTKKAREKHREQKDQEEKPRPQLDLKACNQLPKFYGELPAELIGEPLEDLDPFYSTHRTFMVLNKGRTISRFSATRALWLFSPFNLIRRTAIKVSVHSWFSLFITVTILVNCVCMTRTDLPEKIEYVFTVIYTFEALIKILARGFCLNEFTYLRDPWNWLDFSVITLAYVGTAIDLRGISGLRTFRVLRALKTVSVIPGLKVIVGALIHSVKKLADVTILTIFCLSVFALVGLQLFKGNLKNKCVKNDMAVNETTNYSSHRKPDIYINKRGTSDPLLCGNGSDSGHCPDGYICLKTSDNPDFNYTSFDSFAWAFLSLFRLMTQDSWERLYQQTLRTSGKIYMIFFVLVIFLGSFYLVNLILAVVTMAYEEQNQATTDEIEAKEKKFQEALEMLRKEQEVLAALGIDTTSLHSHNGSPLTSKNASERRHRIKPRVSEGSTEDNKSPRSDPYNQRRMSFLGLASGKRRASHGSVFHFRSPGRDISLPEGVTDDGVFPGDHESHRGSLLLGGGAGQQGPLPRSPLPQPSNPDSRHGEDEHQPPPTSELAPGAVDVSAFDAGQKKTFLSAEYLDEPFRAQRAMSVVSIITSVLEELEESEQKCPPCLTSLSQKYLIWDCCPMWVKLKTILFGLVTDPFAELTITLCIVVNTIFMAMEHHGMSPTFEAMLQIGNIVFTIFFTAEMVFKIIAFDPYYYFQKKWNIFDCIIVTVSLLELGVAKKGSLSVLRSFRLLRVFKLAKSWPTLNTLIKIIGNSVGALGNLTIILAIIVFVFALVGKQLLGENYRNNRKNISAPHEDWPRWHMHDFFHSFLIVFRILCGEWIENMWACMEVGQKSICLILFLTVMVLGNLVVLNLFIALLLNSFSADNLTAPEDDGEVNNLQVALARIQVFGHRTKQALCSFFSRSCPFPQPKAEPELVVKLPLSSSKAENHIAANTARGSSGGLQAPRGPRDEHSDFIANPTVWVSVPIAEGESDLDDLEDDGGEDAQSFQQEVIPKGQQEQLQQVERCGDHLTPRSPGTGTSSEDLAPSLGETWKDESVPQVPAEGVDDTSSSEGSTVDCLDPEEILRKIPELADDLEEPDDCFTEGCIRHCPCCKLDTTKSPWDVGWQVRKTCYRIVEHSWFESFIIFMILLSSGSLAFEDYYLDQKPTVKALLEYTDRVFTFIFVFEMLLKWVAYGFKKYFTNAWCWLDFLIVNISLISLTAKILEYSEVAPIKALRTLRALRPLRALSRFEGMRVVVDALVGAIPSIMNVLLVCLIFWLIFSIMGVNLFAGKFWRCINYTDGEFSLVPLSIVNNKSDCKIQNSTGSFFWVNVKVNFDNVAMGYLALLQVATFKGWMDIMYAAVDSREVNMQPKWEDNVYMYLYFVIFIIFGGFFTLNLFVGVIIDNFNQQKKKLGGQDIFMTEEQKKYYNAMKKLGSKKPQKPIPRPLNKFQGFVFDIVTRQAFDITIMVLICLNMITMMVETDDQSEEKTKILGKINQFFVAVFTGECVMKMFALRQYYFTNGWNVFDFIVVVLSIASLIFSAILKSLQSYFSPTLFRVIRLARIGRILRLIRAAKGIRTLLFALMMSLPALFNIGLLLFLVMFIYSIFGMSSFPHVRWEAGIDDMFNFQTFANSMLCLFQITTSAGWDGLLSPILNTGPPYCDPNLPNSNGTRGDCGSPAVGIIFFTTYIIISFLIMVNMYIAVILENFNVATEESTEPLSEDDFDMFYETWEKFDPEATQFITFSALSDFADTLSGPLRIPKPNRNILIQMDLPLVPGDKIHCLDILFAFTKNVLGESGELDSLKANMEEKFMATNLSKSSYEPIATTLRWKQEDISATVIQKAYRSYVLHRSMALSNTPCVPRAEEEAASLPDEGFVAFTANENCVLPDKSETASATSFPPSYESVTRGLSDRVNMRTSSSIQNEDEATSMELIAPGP
Sequence of Sodium channel protein type 5 subunit alpha (Q14524 whole entry): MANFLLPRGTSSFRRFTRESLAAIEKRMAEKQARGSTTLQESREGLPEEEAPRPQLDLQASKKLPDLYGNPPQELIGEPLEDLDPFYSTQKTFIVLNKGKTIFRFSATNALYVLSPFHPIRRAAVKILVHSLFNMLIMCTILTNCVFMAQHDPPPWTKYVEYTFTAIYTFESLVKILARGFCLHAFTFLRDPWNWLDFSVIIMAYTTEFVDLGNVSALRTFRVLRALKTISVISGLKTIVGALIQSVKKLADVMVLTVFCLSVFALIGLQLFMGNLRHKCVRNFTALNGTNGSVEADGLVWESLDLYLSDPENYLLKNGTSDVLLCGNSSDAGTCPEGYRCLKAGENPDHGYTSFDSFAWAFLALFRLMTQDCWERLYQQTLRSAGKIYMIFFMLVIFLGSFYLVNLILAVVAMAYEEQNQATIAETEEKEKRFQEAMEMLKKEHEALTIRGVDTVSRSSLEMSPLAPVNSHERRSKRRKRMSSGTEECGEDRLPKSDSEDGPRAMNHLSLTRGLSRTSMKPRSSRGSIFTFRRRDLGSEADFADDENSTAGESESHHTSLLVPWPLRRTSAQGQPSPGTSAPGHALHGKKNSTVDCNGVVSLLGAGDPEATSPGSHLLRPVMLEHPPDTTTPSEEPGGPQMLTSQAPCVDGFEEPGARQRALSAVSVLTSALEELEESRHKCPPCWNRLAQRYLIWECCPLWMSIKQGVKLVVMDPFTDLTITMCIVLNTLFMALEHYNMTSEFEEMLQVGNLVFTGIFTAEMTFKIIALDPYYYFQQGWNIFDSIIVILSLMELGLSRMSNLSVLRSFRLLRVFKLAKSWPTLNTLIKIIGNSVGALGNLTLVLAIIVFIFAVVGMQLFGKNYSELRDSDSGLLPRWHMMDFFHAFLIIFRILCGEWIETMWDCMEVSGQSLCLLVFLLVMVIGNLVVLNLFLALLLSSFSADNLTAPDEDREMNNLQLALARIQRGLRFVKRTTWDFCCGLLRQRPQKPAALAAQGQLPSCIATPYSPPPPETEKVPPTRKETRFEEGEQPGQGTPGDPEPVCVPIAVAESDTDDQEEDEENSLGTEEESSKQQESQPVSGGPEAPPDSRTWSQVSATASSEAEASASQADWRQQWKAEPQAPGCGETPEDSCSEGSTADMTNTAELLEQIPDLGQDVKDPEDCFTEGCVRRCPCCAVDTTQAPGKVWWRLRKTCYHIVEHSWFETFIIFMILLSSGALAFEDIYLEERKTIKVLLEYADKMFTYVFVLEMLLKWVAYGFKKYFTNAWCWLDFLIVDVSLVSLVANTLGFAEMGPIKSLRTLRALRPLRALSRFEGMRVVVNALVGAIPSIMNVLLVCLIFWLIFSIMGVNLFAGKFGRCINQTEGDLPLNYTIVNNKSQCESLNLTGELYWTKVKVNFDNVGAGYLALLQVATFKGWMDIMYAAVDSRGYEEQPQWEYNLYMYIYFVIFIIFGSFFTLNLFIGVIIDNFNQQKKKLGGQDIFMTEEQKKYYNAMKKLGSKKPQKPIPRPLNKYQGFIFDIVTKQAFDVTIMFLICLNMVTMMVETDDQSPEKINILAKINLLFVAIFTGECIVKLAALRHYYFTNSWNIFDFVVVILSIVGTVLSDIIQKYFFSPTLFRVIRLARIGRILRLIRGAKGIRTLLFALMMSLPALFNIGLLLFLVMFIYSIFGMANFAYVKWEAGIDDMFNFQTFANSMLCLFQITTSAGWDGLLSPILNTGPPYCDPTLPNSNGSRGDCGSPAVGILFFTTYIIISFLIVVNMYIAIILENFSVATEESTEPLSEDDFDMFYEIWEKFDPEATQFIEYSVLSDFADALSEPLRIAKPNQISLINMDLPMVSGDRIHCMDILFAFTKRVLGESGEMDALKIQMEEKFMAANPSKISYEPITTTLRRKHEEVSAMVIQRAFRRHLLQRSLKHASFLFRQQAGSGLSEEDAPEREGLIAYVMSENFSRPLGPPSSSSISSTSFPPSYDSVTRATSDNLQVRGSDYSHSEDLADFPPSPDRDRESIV
Sequence of Voltage-gated inwardly rectifying potassium channel KCNH2 (Q12809 whole entry): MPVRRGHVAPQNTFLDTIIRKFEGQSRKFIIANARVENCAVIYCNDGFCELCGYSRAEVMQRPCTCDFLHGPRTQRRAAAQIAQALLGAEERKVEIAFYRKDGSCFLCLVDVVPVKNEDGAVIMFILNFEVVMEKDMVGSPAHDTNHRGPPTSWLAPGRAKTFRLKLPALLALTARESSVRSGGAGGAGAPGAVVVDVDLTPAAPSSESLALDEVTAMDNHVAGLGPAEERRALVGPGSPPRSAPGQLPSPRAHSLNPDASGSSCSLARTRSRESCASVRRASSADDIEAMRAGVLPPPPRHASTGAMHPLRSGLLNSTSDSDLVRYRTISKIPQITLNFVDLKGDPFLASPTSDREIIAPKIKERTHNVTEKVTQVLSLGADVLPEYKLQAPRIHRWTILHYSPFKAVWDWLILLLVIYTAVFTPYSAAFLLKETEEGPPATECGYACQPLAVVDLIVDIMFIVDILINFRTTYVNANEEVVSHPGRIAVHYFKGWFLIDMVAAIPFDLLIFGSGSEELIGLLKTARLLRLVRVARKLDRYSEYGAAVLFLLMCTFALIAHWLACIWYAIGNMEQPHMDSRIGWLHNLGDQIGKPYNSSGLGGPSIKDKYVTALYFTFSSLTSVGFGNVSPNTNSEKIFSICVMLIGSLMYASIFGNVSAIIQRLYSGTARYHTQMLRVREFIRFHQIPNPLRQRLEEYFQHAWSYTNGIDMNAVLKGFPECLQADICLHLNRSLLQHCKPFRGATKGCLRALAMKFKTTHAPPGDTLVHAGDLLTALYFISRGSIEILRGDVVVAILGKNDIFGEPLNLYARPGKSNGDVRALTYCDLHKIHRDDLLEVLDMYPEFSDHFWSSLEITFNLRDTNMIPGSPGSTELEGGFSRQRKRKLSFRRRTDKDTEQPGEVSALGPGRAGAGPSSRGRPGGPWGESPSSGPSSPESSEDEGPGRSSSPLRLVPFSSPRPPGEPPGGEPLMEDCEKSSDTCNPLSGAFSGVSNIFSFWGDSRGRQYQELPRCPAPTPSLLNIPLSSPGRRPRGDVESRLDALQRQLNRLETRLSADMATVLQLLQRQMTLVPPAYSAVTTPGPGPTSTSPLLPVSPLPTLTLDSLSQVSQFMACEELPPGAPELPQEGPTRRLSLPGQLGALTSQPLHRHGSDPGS

SMILES: CC(C)(C)c1ccc2ncc([C@@H](N)CO)nc2c1
IC50 [1]: > 1000 nM

IC50 [1]: 593 nM
SMILES: CC1(c2ccc3[nH]c([C@@H](N)CO)nc3c2)CC1

IC50 [1]: 534 nM
SMILES: C[C@@H](O)[C@H](N)c1nc2cc(C(F)(F)F)ccc2[nH]1

Stability [2]: < 11 µL/min
Stability [3]: 2.5 µL/min
pKa [4]: 7
Papp A→B [6]: 2.2 ×10⁻⁶ cm/s
SMILES: C[C@@H](C(N)=O)[C@H](N)c1cn2cc(C(C)(C)C)ccc2n1
IC50 [5]: > 10 µM
IC50 [7]: > 72 µM

IC50 [1]: 579 nM
SMILES: C[C@H](O)[C@@H](N)c1nc2cc(-c3ccc(C#N)cc3)ccc2[nH]1

SMILES: CC(C)(C)c1ccc2ncc([C@H](N)CO)nc2c1
IC50 [1]: > 1000 nM

IC50 [1]: 18 nM
SMILES: CO[C@H](C)[C@H](N)c1nc2cc(-c3ccc(C#N)cc3F)ccc2[nH]1

IC50 [1]: 43 nM
SMILES: CC(C)c1ccc2[nH]c([C@@H](N)[C@@H](C)O)nc2c1

IC50 [1]: 728 nM
SMILES: C[C@@H](O)[C@H](N)c1nc2cc(C(C)(C)C#N)ccc2[nH]1

IC50 [1]: 607 nM
SMILES: CC(C)(C)c1ccc2[nH]c(C(C)(C)N)nc2c1
inhibition at 10 µM (Nav1.5 (SCN5A)): 12%

IC50 [1]: 24 nM
SMILES: CO[C@H](C)[C@H](N)c1nc2cc(C(C)(C)C)ccc2[nH]1

IC50 [1]: 2 nM
SMILES: CCC[C@H](N)c1nc2cc(C(C)(C)C)ccc2[nH]1

IC50 [1]: 95 nM
SMILES: C[C@@H](O)[C@H](N)c1nc2cc(S(F)(F)(F)(F)F)ccc2[nH]1

IC50 [1]: 998 nM
SMILES: CO[C@H](C)[C@H](N)c1nc2cc(-c3ccc(C#N)nc3)ccc2[nH]1

IC50 [1]: 708 nM
SMILES: CCC(C)c1ccc2[nH]c([C@@H](N)CO)nc2c1 (stereo partly drawn)

IC50 [1]: 65 nM
SMILES: CC(C)(C)c1ccc2[nH]c([C@@](C)(N)CO)nc2c1

IC50 [1]: 742 nM
SMILES: CN[C@@H](CC(N)=O)c1nc2cc(C(C)(C)C)ccc2[nH]1

IC50 [1]: 31 nM
SMILES: CC(C)(C)c1ccc2[nH]c([C@H]3C[C@@H](O)CN3)nc2c1

IC50 [1]: 43 nM
SMILES: CC(C)(C)c1ccc2[nH]c([C@H]3CCCN3)nc2c1

SMILES: CCCC(O)c1nc2cc(C(C)(C)C)ccc2[nH]1 (stereo not drawn)
IC50 [1]: > 1000 nM

IC50 [1]: 2570 nM
SMILES: CO[C@H](C)[C@H](N)c1nc2cc(OC(F)(F)F)ccc2[nH]1

SMILES: CC(C)(C)c1ccc2nc([C@H](N)CO)cnc2c1
IC50 [1]: > 1000 nM

SMILES: CC(C)(C)c1ccc2nc([C@@H](N)CO)cnc2c1
IC50 [1]: > 1000 nM

IC50 [8]: > 30 µM
Vd [9]: 2.3 L/kg
IC50 [10]: > 30 µM
clearance [11]: 40 mL/min/kg
Stability [2]: < 11 µL/min
IC50 [12]: > 30 µM
Stability [3]: < 2 µL/min
IC50 [13]: > 30 µM
IC50 [14]: > 30 µM
pKa [4]: 5.9
IC50 [15]: > 30 µM
bioavailability [16]: 61%
IC50 [17]: > 30 µM
logD [18]: 2.1
IC50 [19]: > 30 µM
IC50 [20]: > 30 µM
IC50 [21]: > 30 µM
solubility [22]: 2000 µg/mL (≈ 7.29 mM)
Papp A→B [6]: 3.5 ×10⁻⁶ cm/s
half-life [23]: 90 min
IC50 [24]: > 30 µM
IC50 [25]: > 30 µM
CL free [26]: 214 mL/min/kg
AUC(0-inf) [27]: 962 ng·h/mL
IC50 [1]: 15 nM
IC50 [28]: > 30 µM
IC50 [29]: > 30 µM
SMILES: C[C@@H](C(N)=O)[C@H](N)c1nc2ccc(C(C)(C)C)cc2[nH]1 [PF-06305591]
IC50 [5]: > 30 µM
IC50 [7]: > 30 µM
